# Reference: ChEMBL document CHEMBL1153874, “Synthesis and biological evaluation of cytotoxic properties of stilbene-based resveratrol analogs” (Eur J Med Chem, 2009)
# Tests used:
# [1] = Antimitotic activity in Lytechinus variegatus embryo assessed as inhibition of blastula formation at 352 uM relative to control; assay type: functional
# HCT-8 = assay: Cytotoxicity against human HCT8 cells after 72 hrs by MTT assay; assay type: functional, cell-based; details: HCT-8, 72 h
# MDA-MB-435 = assay: cells; details: Homo sapiens, MDA-MB-435, 72 h
# Description: Cytotoxicity against human MDA-MB-435 cells after 72 hrs by MTT assay
# B16 = assay: Cytotoxicity against mouse B16 cells after 72 hrs by MTT assay; assay type: functional, cell-based; details: B16, 72 h
# Lytechinus variegatus [2] = assay: Antimitotic activity in Lytechinus variegatus embryo assessed as inhibition of third cleavage at 35.2 uM relative to control; assay type: functional
# [3] = Toxicity in mouse erythrocytes assessed as hemolysis at 1.5 to 200 ug/mL after 30 min by spectrophotometry; assay type: cell-based; details: erythrocyte, 0.5 h
# CCRF-CEM = assay: Cytotoxicity against human CEM cells after 72 hrs by MTT assay; assay type: cell-based
# K562 = assay: Cytotoxicity against human K562 cells after 72 hrs by MTT assay; assay type: functional, cell-based; details: K562, 72 h
# Lytechinus variegatus [4] = assay: Antimitotic activity in Lytechinus variegatus embryo assessed as inhibition of first cleavage at 352 uM relative to control; assay type: functional
# Lytechinus variegatus [5] = assay: Antimitotic activity in Lytechinus variegatus embryo assessed as inhibition of first cleavage at 35.2 uM relative to control; assay type: functional
# HL-60 = assay: Cytotoxicity against human HL60 cells after 72 hrs by MTT assay; assay type: functional, cell-based; details: HL-60, 72 h
# PC-3 = assay: cells; details: Homo sapiens, PC-3, 72 h
# Description: Cytotoxicity against human PC3 cells after 72 hrs by MTT assay
# Lytechinus variegatus [6] = assay: Antimitotic activity in Lytechinus variegatus embryo assessed as inhibition of third cleavage at 352 uM relative to control; assay type: functional
# [7] = Antimitotic activity in Lytechinus variegatus embryo assessed as inhibition of blastula formation at 35.2 uM relative to control; assay type: functional
# Lytechinus variegatus [8] = assay: Antimitotic activity in Lytechinus variegatus embryo assessed as inhibition of first cleavage at 417 uM relative to control; assay type: functional
# [9] = Antimitotic activity in Lytechinus variegatus embryo assessed as inhibition of blastula formation at 41.7 uM relative to control; assay type: functional
# Lytechinus variegatus [10] = assay: Antimitotic activity in Lytechinus variegatus embryo assessed as inhibition of third cleavage at 41.7 uM relative to control; assay type: functional
# [11] = Antimitotic activity in Lytechinus variegatus embryo assessed as inhibition of blastula formation at 417 uM relative to control; assay type: functional
# Lytechinus variegatus [12] = assay: Antimitotic activity in Lytechinus variegatus embryo assessed as inhibition of third cleavage at 417 uM relative to control; assay type: functional
# Lytechinus variegatus [13] = assay: Antimitotic activity in Lytechinus variegatus embryo assessed as inhibition of first cleavage at 41.7 uM relative to control; assay type: functional
# Lytechinus variegatus [14] = assay: Antimitotic activity in Lytechinus variegatus embryo assessed as inhibition of third cleavage at 43.8 uM relative to control; assay type: functional
# [15] = Antimitotic activity in Lytechinus variegatus embryo assessed as inhibition of blastula formation at 43.8 uM relative to control; assay type: functional
# Lytechinus variegatus [16] = assay: Antimitotic activity in Lytechinus variegatus embryo assessed as inhibition of first cleavage at 43.8 uM relative to control; assay type: functional
# [17] = Antimitotic activity in Lytechinus variegatus embryo assessed as inhibition of blastula formation at 320 uM relative to control; assay type: functional
# [18] = Antimitotic activity in Lytechinus variegatus embryo assessed as inhibition of blastula formation at 32 uM relative to control; assay type: functional
# Lytechinus variegatus [19] = assay: Antimitotic activity in Lytechinus variegatus embryo assessed as inhibition of third cleavage at 320 uM relative to control; assay type: functional
# Lytechinus variegatus [20] = assay: Antimitotic activity in Lytechinus variegatus embryo assessed as inhibition of third cleavage at 32 uM relative to control; assay type: functional
# Lytechinus variegatus [21] = assay: Antimitotic activity in Lytechinus variegatus embryo assessed as inhibition of first cleavage at 320 uM relative to control; assay type: functional
# Lytechinus variegatus [22] = assay: Antimitotic activity in Lytechinus variegatus embryo assessed as inhibition of first cleavage at 32 uM relative to control; assay type: functional
# Lytechinus variegatus [23] = assay: Antimitotic activity in Lytechinus variegatus embryo assessed as inhibition of third cleavage at 39.4 uM relative to control; assay type: functional
# Lytechinus variegatus [24] = assay: Antimitotic activity in Lytechinus variegatus embryo assessed as inhibition of third cleavage at 394 uM relative to control; assay type: functional
# Lytechinus variegatus [25] = assay: Antimitotic activity in Lytechinus variegatus embryo assessed as inhibition of first cleavage at 39.4 uM relative to control; assay type: functional
# [26] = Antimitotic activity in Lytechinus variegatus embryo assessed as inhibition of blastula formation at 394 uM relative to control; assay type: functional
# Lytechinus variegatus [27] = assay: Antimitotic activity in Lytechinus variegatus embryo assessed as inhibition of first cleavage at 394 uM relative to control; assay type: functional
# [28] = Antimitotic activity in Lytechinus variegatus embryo assessed as inhibition of blastula formation at 39.4 uM relative to control; assay type: functional
# [29] = Antimitotic activity in Lytechinus variegatus embryo assessed as inhibition of blastula formation at 184 uM relative to control; assay type: functional
# [30] = Antimitotic activity in Lytechinus variegatus embryo assessed as inhibition of blastula formation at 18.4 uM relative to control; assay type: functional
# Lytechinus variegatus [31] = assay: Antimitotic activity in Lytechinus variegatus embryo assessed as inhibition of first cleavage at 184 uM relative to control; assay type: functional
# Lytechinus variegatus [32] = assay: Antimitotic activity in Lytechinus variegatus embryo assessed as inhibition of first cleavage at 18.4 uM relative to control; assay type: functional
# Lytechinus variegatus [33] = assay: Antimitotic activity in Lytechinus variegatus embryo assessed as inhibition of third cleavage at 184 uM relative to control; assay type: functional
# Lytechinus variegatus [34] = assay: Antimitotic activity in Lytechinus variegatus embryo assessed as inhibition of third cleavage at 18.4 uM relative to control; assay type: functional
# Lytechinus variegatus [35] = assay: Antimitotic activity in Lytechinus variegatus embryo assessed as inhibition of first cleavage at 370 uM relative to control; assay type: functional
# [36] = Antimitotic activity in Lytechinus variegatus embryo assessed as inhibition of blastula formation at 370 uM relative to control; assay type: functional
# Lytechinus variegatus [37] = assay: Antimitotic activity in Lytechinus variegatus embryo assessed as inhibition of first cleavage at 37 uM relative to control; assay type: functional
# Lytechinus variegatus [38] = assay: Antimitotic activity in Lytechinus variegatus embryo assessed as inhibition of third cleavage at 370 uM relative to control; assay type: functional
# [39] = Antimitotic activity in Lytechinus variegatus embryo assessed as inhibition of blastula formation at 37 uM relative to control; assay type: functional
# Lytechinus variegatus [40] = assay: Antimitotic activity in Lytechinus variegatus embryo assessed as inhibition of third cleavage at 37 uM relative to control; assay type: functional
IC50 (MDA-MB-435),IC50 (PC-3),Compound,IC50 (HCT-8),IC50 (B16),Activity [3],IC50 (CCRF-CEM),IC50 (K562),IC50 (HL-60),inhibition (Lytechinus variegatus [8]),inhibition at 41.7 µM [9],inhibition (Lytechinus variegatus [10]),inhibition at 417 µM [11],inhibition (Lytechinus variegatus [12]),inhibition (Lytechinus variegatus [13]),further results
> 25 µg/mL,> 25 µg/mL,COc1ccc(/C=C(/C(=O)O)c2ccccc2)cc1OC,> 25 µg/mL,> 25 µg/mL,Non-toxic,> 25 µg/mL,> 25 µg/mL,> 25 µg/mL,,,,,,,inhibition at 352 µM [1]: 0.7%; inhibition (Lytechinus variegatus [2]): 0%; inhibition (Lytechinus variegatus [4]): 3%; inhibition (Lytechinus variegatus [5]): 4.3%; inhibition (Lytechinus variegatus [6]): 0%; inhibition at 35.2 µM [7]: 0.7%
6.08 µg/mL,> 25 µg/mL,COc1ccc(/C=C\c2ccccc2)cc1OC,> 25 µg/mL,> 25 µg/mL,Non-toxic,> 25 µg/mL,6.38 µg/mL,6.42 µg/mL,100%,100%,100%,100%,100%,0%,
13.8 µg/mL,3.51 µg/mL,Oc1ccc(/C=C/c2cc(O)cc(O)c2)cc1 [RESVERATROL],5.82 µg/mL,14.3 µg/mL,Non-toxic,5.91 µg/mL,9.62 µg/mL,2.45 µg/mL,,,,,,,inhibition (Lytechinus variegatus [14]): 100%; inhibition at 43.8 µM [15]: 100%; inhibition (Lytechinus variegatus [16]): 97.9%
> 25 µg/mL,> 25 µg/mL,COc1ccc(/C=C/c2ccccc2)cc1OC,> 25 µg/mL,> 25 µg/mL,Non-toxic,> 25 µg/mL,> 25 µg/mL,> 25 µg/mL,0%,83%,6%,100%,100%,0%,
> 25 µg/mL,> 25 µg/mL,COc1cc(/C=C(/C(=O)O)c2ccccc2)ccc1OC(C)=O,> 25 µg/mL,> 25 µg/mL,Non-toxic,> 25 µg/mL,> 25 µg/mL,> 25 µg/mL,,,,,,,inhibition at 320 µM [17]: 100%; inhibition at 32 µM [18]: 5%; inhibition (Lytechinus variegatus [19]): 100%; inhibition (Lytechinus variegatus [20]): 2.3%; inhibition (Lytechinus variegatus [21]): 100%; inhibition (Lytechinus variegatus [22]): 0%
> 25 µg/mL,> 25 µg/mL,COc1ccc(/C=C(/C(=O)O)c2ccccc2)cc1,> 25 µg/mL,> 25 µg/mL,Non-toxic,> 25 µg/mL,> 25 µg/mL,> 25 µg/mL,,,,,,,inhibition (Lytechinus variegatus [23]): 3.6%; inhibition (Lytechinus variegatus [24]): 9.3%; inhibition (Lytechinus variegatus [25]): 0%; inhibition at 394 µM [26]: 68.7%; inhibition (Lytechinus variegatus [27]): 0%; inhibition at 39.4 µM [28]: 0.3%
,0.45 µg/mL,COc1cccc2c1C(=O)c1c(O)c3c(c(O)c1C2=O)C[C@@](O)(C(=O)CO)C[C@@H]3O[C@H]1C[C@H](N)[C@H](O)[C@H](C)O1 [DOXORUBICIN],,,,0.02 µg/mL,0.14 µg/mL,,,,,,,,inhibition at 184 µM [29]: 100%; inhibition at 18.4 µM [30]: 100%; inhibition (Lytechinus variegatus [31]): 100%; inhibition (Lytechinus variegatus [32]): 100%; inhibition (Lytechinus variegatus [33]): 100%; inhibition (Lytechinus variegatus [34]): 100%
> 25 µg/mL,> 25 µg/mL,O=C(O)/C(=C/c1ccccc1O)c1ccccc1,> 25 µg/mL,> 25 µg/mL,Non-toxic,> 25 µg/mL,> 25 µg/mL,> 25 µg/mL,44.5%,97.3%,96.3%,95.4%,100%,12.3%,
17.8 µg/mL,> 25 µg/mL,COc1cc(/C=C(/C(=O)O)c2ccccc2)ccc1O,> 25 µg/mL,> 25 µg/mL,Non-toxic,> 25 µg/mL,> 25 µg/mL,> 25 µg/mL,,,,,,,inhibition (Lytechinus variegatus [35]): 0%; inhibition at 370 µM [36]: 99.7%; inhibition (Lytechinus variegatus [37]): 0%; inhibition (Lytechinus variegatus [38]): 7.3%; inhibition at 37 µM [39]: 5.3%; inhibition (Lytechinus variegatus [40]): 7.6%
